Where a name gives a salt, the structure may show the parent alone. Read-outs that look alike come from different tables or passages of the source.
Tests used:
muscarinic receptors [1] = experiment: Radio ligand binding: displacement of muscarinic agonist 3H-OXO-M (3H-Oxotremorine-M), rat cerebral cortex membranes; parameters: species or system Hooded Lister rats; conditions: 2 nM 3H-OXO-M, 2 mM magnesium chloride, 37° C., 30 min, pH 7.7, non-specific: 10 μM Oxotremorine
muscarinic receptors [2] = format: binding, Hooded Lister rats; conditions: 0.27 nM 3H-QNB; rat cerebral cortex; 37° C., 30 min; pH 7.7; non-specific: 1 μM Atropine sulphate

Row | SMILES | IC50 (muscarinic receptors [1]) [nM] | IC50 (muscarinic receptors [2]) [nM]
1 | C#CC(=NOC)C12CCCN(CC1)C2 (racemic) [Example E4, (±) 1-Azabicyclo[3.2.1]oct-5-yl ethynyl ketone O-methyloxime oxalate salt] | 162 | 1460
2 | CON=C(Cl)[C@@H]1CN2CC[C@H]1C2 (relative stereo) [Example E16, (±) endo-1-Azabicyclo[2.2.1]hept-3-yl -N-methoxycarboximidoyl chloride oxalate salt] | 99 | 7000
3 | CON=C(C#N)C12CCN(CC1)C2 [Example E12, α-(Methoxyimino)-α-(1-azabicyclo[2.2.1]hept-4-syl)acetonitrilehydrochloride salt] | 21 | 2000
4 | CON=C(Cl)C12CCCN(CC1)C2 (racemic) [Example E5, (±) 1-Azabicyclo[3.2.1]oct-5-yl-N-methoxycarboximidoyl chloride oxalate salt] | 72 | 3820
5 | CON=C(C#N)[C@@H]1CN2CC[C@H]1C2 (relative stereo) [Example E17, (±) endo-α-(Methoxyimino)-α-(1-azabicyclo[2.2.1]hept-3-yl)acetonitrile oxalate salt] | 16 | 3600
6 | CON=C(Cl)[C@H]1CN2CC[C@H]1C2 (relative stereo) [Example E8, (±) exo-1-Azabicyclo[2.2.1]hept-3-yl-N-methoxycarboximidoyl chloride oxalate salt] | 64 | 3330
7 | CON=C(Br)[C@H]1CN2CC[C@H]1C2 (relative stereo) [Example E18, (±) exo- and endo-1-Azabicyclo[2.2.1]hept-3-yl-N-methoxycarboximidoyl bromide oxalate salts] | 46 | 11000
8 | CON=C(C#N)C12CCCN(CC1)C2 (racemic) [Example E6, (±) α-(Methoxyimino)-α-(1-azabicyclo[3.2.1]oct-5-yl) acetonitrile hydrochloride salt] | 114 | 251
9 | CON=C(Br)C12CCN(CC1)C2 [Example E13, 1-Azabicyclo[2.2.1]hept-4-yl-N-methoxycarboximidoyl bromide oxalate salt] | 170 | 10000
10 | CON=C(C#N)[C@H]1CN2CC[C@H]1C2 (relative stereo) [Example E9, (±) exo-α-(Methoxyimino)-α-(1-azabicyclo[2.2.1]hept-3-yl)acetonitrile hydrochloride salt] | 25 | 2100
11 | CON=C(Cl)C12CCN(CC1)C2 [Example E11, 1-Azabicyclo[2.2.1]hept-4-yl-N-methoxycarboximidoyl chloride oxalate salt] | 38 | 9000
12 | CCON=C(C#N)[C@H]1CN2CC[C@H]1C2 (relative stereo) [Example E22, (±) exo-α-(Ethoxyimino)-α-(1-azabicyclo[2.2. 1]hept-3-yl)acetonitrile oxalate salt] | 233 | 10000
13 | CON=C(Cl)C1CN2CCC1CC2 (racemic) [Example E1, (±) 1-Azabicyclo[2.2.2]oct-3-yl-N-methoxycarboximidoyl chloride oxalate salt] | 93 | 897
14 | CON=C(CC#N)[C@@H]1CN2CC[C@H]1C2 (relative stereo) [Example E28, (±) exo- and endo-3-Oxo-3-(1-azabicyclo[2.2.1]hept-3-yl)propionitrile-O-methyl oxime oxalate salts] | 750 | 16500
15 | CON=C(F)[C@H]1CN2CC[C@H]1C2 (relative stereo) [Example E20, (±) exo-1-Azabicyclo[2.2.1]hept-3-yl-N-methoxy carboximidoyl fluoride oxalate salt] | 11 | 3000
16 | CON=C(CC#N)[C@H]1CN2CC[C@H]1C2 (relative stereo) [Example E27, (±) exo- and endo-3-Oxo-3-(1-azabicyclo[2.2.1]hept-3-yl)propionitrile-O-methyl oxime oxalate salts] | 71 | 1100
17 | CON=C(Br)[C@@H]1CN2CC[C@H]1C2 (relative stereo) [Example E19, (±) exo- and endo-1-Azabicyclo[2.2.1]hept-3-yl-N-methoxycarboximidoyl bromide oxalate salts] | 127 | 3600
18 | CON=C(OC)C1CN2CCC1CC2 (racemic) [Example E2, (±) 1-Azabicyclo2.2.2]oct-3-yl-N-methoxycarboximidic acid methyl ester oxidate salt] | 1000 | 8000
19 | C#CCON=C(Cl)[C@H]1CN2CC[C@H]1C2 (relative stereo) [Example E24, (±) exo- and endo-1-Azabicyclo[2.2.1]hept-3-yl-N-prop-2-ynyloxycarboximidoyl chloride oxalate salts] | 112 | 2100
20 | CON=C(F)C1CN2CCC1CC2 (racemic) [Example E10, (±) 1-Azabicyclo[2.2.2]oct-3-yl-N-methoxycarboximidoyl fluoride oxalate salt] | 34 | 2110
21 | CCON=C(Cl)[C@H]1CN2CC[C@H]1C2 (relative stereo) [Example E21, (±) exo-1-Azabicyclo[2.2.1]hept-3-yl-N-ethoxy carboximidoyl chloride oxalate salt] | 570 | 15500
22 | CON=C(Br)C12CCCN(CC1)C2 (racemic) [Example E7, (±) 1-Azabicyclo[3.2. ]oct-5-yl-N-methoxycarboximidonyl bromide oxalate salt] | 190 | 2850
23 | CON=C(F)C12CCN(CC1)C2 [Example E14, 1-Azabicyclo[2.2.1]hept-4-yl-N-methoxycarboximidoyl fluoride oxalate salt] | 48 | 15500
24 | CON=C(C1CC1)C1CN2CCC1CC2 (racemic) [Example E15, (±) 1-Azabicyclo[2.2.2]oct-3-yl cyclopropyl ketone trans-O-methyloxime hydrochloride salt] | 386 | 22200
